Test results as given in EP4596574A1, “GLP-1/GCG/GIP TRIPLE-RECEPTOR AGONIST AND USE THEREOF” (Sunshine Lake Pharma Co., Ltd., priority 2022, dated 2024).
Marks after values point to notes of the source that are not given here. Starred links: 1 amine or outer side, 2 acyl side, 3 side chain; linkers in the order of their positions; H or OH if unused. Non-standard residues stand in square brackets, D forms with d. Residues, ends and D or L forms follow the SMILES beside them. Groups on a side chain read outwards from the residue. *: point of attachment. C20 diacid = O=C(O)CCCCCCCCCCCCCCCCCCC(=O)*; αMePhe(2-F) = C[C@](N)(Cc1ccccc1F)C(=O)O; γGlu = O=C(O)[C@H](CCC(=O)[*:2])N[*:1]; AEEA = NCCOCCOCC(=O)O; Aib = CC(C)(N)C(=O)O

Assays:
GLP-1R = target: T1, GLP-1R (Homo sapiens, UniProt P43220); test: In vitro cell activity, cAMP production in HEK293 cells expressing GLP-1R; format: cell-based; conditions: HEK293-GLP-1R cells, cAMP; read-out: GLP-1R (EC50)
T1 construct: expressed in transfected cells; host or cells: HEK293 (HEK293-GLP-1R)
Method: (§1) After they were completely thawed within 1.5 minutes, the cells were added dropwise into a 15 mL centrifuge tube containing 8 mL of warm culture medium in a clean bench. The tubes were centrifuged at 900 rpm for 5 minutes, the supernatant was discarded, and the cells were resuspended in 1 mL of complete culture medium (by pipetting 15 times). 20 µL of the suspension was immediately taken and mixed with an equal volume of trypan blue. 20 µL was taken to count the number of live cells, and the cells were diluted to 4×10^5 cells/mL with complete culture medium. • 4) The 384-well plate was divided into GLP-1R cell, GCGR cell and GIPR cell areas. The cell suspension was added to the wells of the corresponding area at 5 µL per well using a 12-channel variable-channel adjustable dispenser. […] Then, the diluted cAMP-d2 working solution and anti-cAMP-crytate working solution were mixed evenly in a ratio of 1:1, and 10 µL was added to each well of the sample group. The wells were covered with white lids and placed at room temperature in the dark for 1 hour or at 4 °C overnight. • 6) The fluorescence values at 665 nm and 620 nm were detected in a multifunctional microplate reader. In GraphPad Prism 6, the signal ratio and sample concentration were nonlinearly fitted using a four-parameter equation to obtain the EC50 value.

GCGR = target: T2, GCGR (Homo sapiens, UniProt P47871); test: In vitro cell activity, cAMP production in HEK293 cells expressing GCGR; format: cell-based; conditions: HEK293-GCGR cells, cAMP; read-out: GCGR (EC50)
T2 construct: expressed in transfected cells; host or cells: HEK293 (HEK293-GCGR)
Method: as §1

GIPR = target: T3, GIPR (Homo sapiens, UniProt P48546); test: In vitro cell activity, cAMP production in HEK293 cells expressing GIPR; format: cell-based; conditions: HEK293-GIPR cells, cAMP; read-out: GIPR (EC50)
T3 construct: expressed in transfected cells; host or cells: HEK293 (HEK293-GIPR)
T3 sequence (P48546 22-466): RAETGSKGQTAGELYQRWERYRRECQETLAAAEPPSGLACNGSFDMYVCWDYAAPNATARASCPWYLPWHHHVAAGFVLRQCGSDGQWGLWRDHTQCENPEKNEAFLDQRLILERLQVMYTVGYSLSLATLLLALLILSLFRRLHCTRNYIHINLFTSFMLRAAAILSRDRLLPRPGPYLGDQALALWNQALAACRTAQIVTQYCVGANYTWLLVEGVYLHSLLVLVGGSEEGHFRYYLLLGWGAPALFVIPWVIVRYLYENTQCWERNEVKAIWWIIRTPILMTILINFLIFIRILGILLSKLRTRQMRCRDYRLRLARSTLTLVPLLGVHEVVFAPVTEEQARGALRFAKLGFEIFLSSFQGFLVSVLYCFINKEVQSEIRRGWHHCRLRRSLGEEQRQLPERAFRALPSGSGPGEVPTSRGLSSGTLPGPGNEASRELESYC
Method: as §1, with “The wells were covered with white lids and placed at room temperature in the dark for 1 hour or at 4 °C overnight. • 6) The fluorescence values at 665 nm and 620 nm were detected in a multifunctional microplate reader.” left out

[1] = Long-term repeated administration in diet-induced obese C57BL/6 mice (DIO); format: in vivo, C57/BL6 mice
From the text: Experimental methods: C57/BL6 mice were randomly divided into a normal group (NFD) and a model group (HFD) at the fifth week of age. The normal group was fed with ordinary maintenance feed, while the other groups were fed with high-fat feed D12492. The body weight and food intake of mice were monitored every 3 weeks. After 16 weeks of feeding, the body weights of mice in the model group and the normal group were (49.0±2.3) g and (31.0±2.0) g, respectively, and the difference between the two groups was statistically significant. […] Body weight and food intake were measured before each administration. After 3 weeks of administration, an intraperitoneal glucose tolerance test was performed. The mice were slaughtered and samples were collected 72 h after the last administration. The liver weight was recorded, and the liver pathological conditions and blood biochemical indexes of each group were tested.

[2] = 10 nmol/kg s.c. once every 3 days, D7
[3] = 10 nmol/kg s.c. once every 3 days, D10
[4] = 10 nmol/kg s.c. once every 3 days, D13
[5] = 10 nmol/kg s.c. once every 3 days, D16
[6] = 10 nmol/kg s.c. once every 3 days, D19
[7] = 10 nmol/kg s.c. once every 3 days, D22
[8] = 10 nmol/kg s.c. once every 3 days, D25
[9] = 10 nmol/kg s.c. once every 3 days, D28
[10] = long-term administration 10 nmol/kg, 72 h after the last administration
[11] = long-term administration 10 nmol/kg, blood biochemical index

T1 sequence (P43220 24-463, species assumed): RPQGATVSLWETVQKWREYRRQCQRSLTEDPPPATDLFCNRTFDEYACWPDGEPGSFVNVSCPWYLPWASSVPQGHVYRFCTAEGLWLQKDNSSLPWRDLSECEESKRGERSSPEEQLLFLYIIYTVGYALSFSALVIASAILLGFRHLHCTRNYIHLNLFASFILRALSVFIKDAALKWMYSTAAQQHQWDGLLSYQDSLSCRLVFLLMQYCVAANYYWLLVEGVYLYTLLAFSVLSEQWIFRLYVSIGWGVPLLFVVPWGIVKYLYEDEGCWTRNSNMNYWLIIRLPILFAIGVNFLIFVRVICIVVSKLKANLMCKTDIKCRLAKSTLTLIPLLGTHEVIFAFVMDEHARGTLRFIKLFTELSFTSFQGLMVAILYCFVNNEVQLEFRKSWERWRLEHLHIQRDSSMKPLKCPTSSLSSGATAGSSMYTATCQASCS
T2 sequence (P47871 26-477, species assumed): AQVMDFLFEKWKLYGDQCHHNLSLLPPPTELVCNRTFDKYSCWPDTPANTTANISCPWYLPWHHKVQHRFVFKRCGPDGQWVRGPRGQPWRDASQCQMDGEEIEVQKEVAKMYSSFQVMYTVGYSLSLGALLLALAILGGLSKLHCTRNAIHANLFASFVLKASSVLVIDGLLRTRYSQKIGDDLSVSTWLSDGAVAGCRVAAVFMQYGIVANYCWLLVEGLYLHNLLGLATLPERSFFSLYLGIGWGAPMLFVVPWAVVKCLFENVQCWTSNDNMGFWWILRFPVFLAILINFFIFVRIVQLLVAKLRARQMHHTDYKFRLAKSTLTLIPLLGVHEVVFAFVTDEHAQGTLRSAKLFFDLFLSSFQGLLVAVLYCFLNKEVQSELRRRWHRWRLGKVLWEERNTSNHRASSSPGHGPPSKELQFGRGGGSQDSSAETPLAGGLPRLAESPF

CC[C@H](C)[C@H](NC(=O)[C@H](CCCCN)NC(=O)[C@H](CC(=O)O)NC(=O)[C@H](CCCCNC(=O)COCCOCCNC(=O)CC[C@H](NC(=O)CCCCCCCCCCCCCCCCCCC(=O)O)C(=O)O)NC(=O)[C@H](CC(C)C)NC(=O)[C@@H](NC(=O)[C@H](CO)NC(=O)[C@H](Cc1ccc(O)cc1)NC(=O)[C@H](CC(=O)O)NC(=O)[C@H](CO)NC(=O)[C@@H](NC(=O)[C@](C)(Cc1ccccc1F)NC(=O)[C@@H](NC(=O)CNC(=O)[C@H](CCC(N)=O)NC(=O)C(C)(C)NC(=O)[C@@H](N)Cc1ccc(O)cc1)[C@@H](C)O)[C@@H](C)O)[C@@H](C)CC)C(=O)N[C@@H](C)C(=O)N[C@@H](CCC(N)=O)C(=O)NC(C)(C)C(=O)N[C@@H](C)C(=O)N[C@@H](Cc1ccccc1)C(=O)N[C@H](C(=O)N[C@@H](CCC(=O)O)C(=O)N[C@@H](Cc1ccc(O)cc1)C(=O)N[C@@H](CC(C)C)C(=O)N[C@@H](CC(C)C)C(=O)N[C@@H](C)C(=O)NCC(=O)NCC(=O)N1CCC[C@H]1C(=O)N[C@@H](CO)C(=O)N[C@@H](CO)C(=O)NCC(=O)N[C@@H](C)C(=O)N1CCC[C@H]1C(=O)N1CCC[C@H]1C(=O)N1CCC[C@H]1C(=O)N[C@@H](CO)C(N)=O)[C@@H](C)CC [HEC-PT138] (H-Y[Aib]QGT[αMePhe(2-F)]TSDYSILK([AEEA-γGlu-C20 diacid])DKIAQ[Aib]AFIEYLLAGGPSSGAPPPS-NH2)
EC50 (GLP-1R): 0.271 nM
EC50 (GCGR): 0.175 nM
EC50 (GIPR): 0.0649 nM

CC[C@H](C)[C@H](NC(=O)[C@H](Cc1ccccc1)NC(=O)[C@H](C)NC(=O)[C@H](CCCNC(=N)N)NC(=O)[C@H](CCC(N)=O)NC(=O)[C@H](C)NC(=O)[C@H](CCCCNC(=O)COCCOCCNC(=O)CC[C@H](NC(=O)CCCCCCCCCCCCCCCCCCC(=O)O)C(=O)O)NC(=O)[C@H](CCC(=O)O)NC(=O)[C@H](CC(=O)O)NC(=O)[C@H](CC(C)C)NC(=O)[C@H](CC(C)C)NC(=O)[C@@H](NC(=O)[C@H](CO)NC(=O)[C@H](Cc1ccc(O)cc1)NC(=O)[C@H](CC(=O)O)NC(=O)[C@H](CO)NC(=O)[C@@H](NC(=O)[C@](C)(Cc1ccccc1F)NC(=O)[C@@H](NC(=O)CNC(=O)[C@H](Cc1c[nH]cn1)NC(=O)C(C)(C)NC(=O)[C@@H](N)Cc1ccc(O)cc1)[C@@H](C)O)[C@@H](C)O)[C@@H](C)CC)C(=O)N[C@@H](CCC(=O)O)C(=O)N[C@@H](Cc1ccc(O)cc1)C(=O)N[C@@H](CC(C)C)C(=O)N[C@@H](CC(C)C)C(=O)N[C@@H](C)C(=O)NCC(=O)NCC(=O)N1CCC[C@H]1C(=O)N[C@@H](CO)C(=O)N[C@@H](CO)C(=O)NCC(=O)N[C@@H](C)C(=O)N1CCC[C@H]1C(=O)N1CCC[C@H]1C(=O)N1CCC[C@H]1C(=O)N[C@@H](CO)C(=O)O [HEC-PT83]
EC50 (GLP-1R): 0.256 nM
EC50 (GCGR): 0.311 nM
EC50 (GIPR): 0.158 nM

CC[C@H](C)[C@H](NC(=O)[C@H](Cc1ccccc1)NC(=O)[C@H](C)NC(=O)[C@H](CCCNC(=N)N)NC(=O)[C@H](C)NC(=O)[C@H](CCCNC(=N)N)NC(=O)[C@H](CCCCNC(=O)COCCOCCNC(=O)CC[C@H](NC(=O)CCCCCCCCCCCCCCCCCCC(=O)O)C(=O)O)NC(=O)[C@H](CCC(=O)O)NC(=O)[C@H](CC(=O)O)NC(=O)[C@H](CC(C)C)NC(=O)[C@H](CC(C)C)NC(=O)[C@@H](NC(=O)[C@H](CO)NC(=O)[C@H](Cc1ccc(O)cc1)NC(=O)[C@H](CC(=O)O)NC(=O)[C@H](CO)NC(=O)[C@@H](NC(=O)[C@](C)(Cc1ccccc1F)NC(=O)[C@@H](NC(=O)CNC(=O)[C@H](CCC(N)=O)NC(=O)C(C)(C)NC(=O)[C@@H](N)Cc1ccc(O)cc1)[C@@H](C)O)[C@@H](C)O)[C@@H](C)CC)C(=O)N[C@@H](CCC(=O)O)C(=O)N[C@@H](Cc1ccc(O)cc1)C(=O)N[C@@H](CC(C)C)C(=O)N[C@@H](CC(C)C)C(=O)N[C@@H](C)C(=O)NCC(=O)NCC(=O)N1CCC[C@H]1C(=O)N[C@@H](CO)C(=O)N[C@@H](CO)C(=O)NCC(=O)N[C@@H](C)C(=O)N1CCC[C@H]1C(=O)N1CCC[C@H]1C(=O)N1CCC[C@H]1C(=O)N[C@@H](CO)C(=O)O [HEC-PT88]
EC50 (GLP-1R): 0.13 nM
EC50 (GCGR): 0.035 nM
EC50 (GIPR): 0.485 nM

semaglutide [reference compound]
Cumulative food intake (g/pcs) D7 [1, 2]: 14.1 g/pcs
Weight gain rate (%) D7 [1, 2]: -8.1±1.7%
Cumulative food intake (g/pcs) D10 [1, 3]: 19.4 g/pcs
Weight gain rate (%) D10 [1, 3]: -10.8±2.2%
Cumulative food intake (g/each) D13 [1, 4]: 25.2 g/each
Weight gain rate (%) D13 [1, 4]: -13.5±3.2%
Cumulative food intake (g/each) D16 [1, 5]: 31.5 g/each
Weight gain rate (%) D16 [1, 5]: -14.2±3.8%
Cumulative food intake (g/each) D19 [1, 6]: 38.1 g/each
Weight gain rate (%) D19 [1, 6]: -14.2±4.1%
Cumulative food intake (g/each) D22 [1, 7]: 45.0 g/each
Weight gain rate (%) D22 [1, 7]: -14.5±4.5%
Cumulative food intake (g/each) D25 [1, 8]: 51.6 g/each
Weight gain rate (%) D25 [1, 8]: -16.5±4.1%
Cumulative food intake (g/each) D28 [1, 9]: 58.9 g/each
Weight gain rate (%) D28 [1, 9]: -18.5±5.1%
Cumulative food intake (g/each) D30 ([1]; 10 nmol/kg s.c. once every 3 days, D30): 63.9^a g/each
Weight gain rate (%) D31 ([1]; 10 nmol/kg s.c. once every 3 days, D31): -17.4±4.9^a %
Cumulative food intake (g/pcs) D0 ([1]; 10 nmol/kg s.c., D0): 2.6 g/pcs
Weight gain rate (%) D0 ([1]; 10 nmol/kg s.c., D0): 0.0±0.0%
Cumulative food intake (g/pcs) D1 ([1]; 10 nmol/kg s.c., D1): 2.9 g/pcs
Weight gain rate (%) D1 ([1]; 10 nmol/kg s.c., D1): -6.8±0.6%
Cumulative food intake (g/pcs) D2 ([1]; 10 nmol/kg s.c., D2): 4.0 g/pcs
Weight gain rate (%) D2 ([1]; 10 nmol/kg s.c., D2): -7.1±1.1%
Cumulative food intake (g/pcs) D3 ([1]; 10 nmol/kg s.c., D3): 6.4 g/pcs
Weight gain rate (%) D3 ([1]; 10 nmol/kg s.c., D3): -5.2±1.3%
Cumulative food intake (g/pcs) D4 ([1]; 10 nmol/kg s.c., D4): 9.3 g/pcs
Weight gain rate (%) D4 ([1]; 10 nmol/kg s.c., D4): -3.8±1.3%
Liver index/% [1, 10]: 3.0±0.0^a %
Liver/g [1, 10]: 1.1±0.1^a g
Weight/g [1, 10]: 38.3±2.9^a g
ALT (U/L) [1, 11]: 45.4±14.6^a U/L
AST (U/L) [1, 11]: 131.2±19.2^a U/L
CHOL (mmol/L) [1, 11]: 4.5±0.6^a mmol/L
TRIGL (mmol/L) [1, 11]: 0.6±0.1^a mmol/L
